Measured values: paper PMC3323550, “Functional Characterization of EngA^MS, a P-Loop GTPase of Mycobacterium smegmatis” (PLoS ONE, 2012)

How the values were obtained:
EngA^MS (MSMEG_3738) [1] = molecular target: T1, EngA^MS (MSMEG_3738) (Mycolicibacterium smegmatis, UniProt A0QYP9, D154N); assay: fluorescent mant-nucleotide binding assay, single concentration; conditions: 4 µM protein, 1 µM mant-GDP, 40 mM Tris-Cl pH 8.0, 2 mM MgCl2, 40% glycerol, room temperature; labelled compound
T1 construct: gene der
T1 sequence (A0QYP9 entry or part of it D154N): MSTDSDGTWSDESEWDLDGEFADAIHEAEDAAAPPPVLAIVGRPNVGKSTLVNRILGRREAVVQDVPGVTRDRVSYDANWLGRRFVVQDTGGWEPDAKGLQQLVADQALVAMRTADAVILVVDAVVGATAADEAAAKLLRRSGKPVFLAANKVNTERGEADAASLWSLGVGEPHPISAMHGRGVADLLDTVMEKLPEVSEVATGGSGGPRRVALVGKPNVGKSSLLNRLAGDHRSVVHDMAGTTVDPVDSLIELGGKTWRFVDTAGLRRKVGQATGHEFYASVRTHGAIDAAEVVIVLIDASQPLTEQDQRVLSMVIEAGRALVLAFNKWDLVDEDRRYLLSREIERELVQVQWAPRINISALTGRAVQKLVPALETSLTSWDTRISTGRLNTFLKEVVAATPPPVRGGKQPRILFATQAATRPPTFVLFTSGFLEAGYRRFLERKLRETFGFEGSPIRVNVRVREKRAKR

EngA^MS (MSMEG_3738) [2] = molecular target: T2, EngA^MS (MSMEG_3738) (Mycolicibacterium smegmatis, UniProt A0QYP9, D331N); assay: as above; conditions: 4 µM protein, 1 µM mant-GDP, 40 mM Tris-Cl pH 8.0, 2 mM MgCl2, 40% glycerol, room temperature; labelled compound
T2 construct: gene der
T2 sequence (A0QYP9 entry or part of it D331N): as the sequence (A0QYP9 entry or part of it D154N) above, with N154D, D331N counted along it

EngA^MS (MSMEG_3738) [3] = molecular target: T3, EngA^MS (MSMEG_3738) (Mycolicibacterium smegmatis, UniProt A0QYP9); assay: colorimetric Pi release GTPase assay; format: biochemical
T3 construct: gene der
T3 sequence (A0QYP9 1-471): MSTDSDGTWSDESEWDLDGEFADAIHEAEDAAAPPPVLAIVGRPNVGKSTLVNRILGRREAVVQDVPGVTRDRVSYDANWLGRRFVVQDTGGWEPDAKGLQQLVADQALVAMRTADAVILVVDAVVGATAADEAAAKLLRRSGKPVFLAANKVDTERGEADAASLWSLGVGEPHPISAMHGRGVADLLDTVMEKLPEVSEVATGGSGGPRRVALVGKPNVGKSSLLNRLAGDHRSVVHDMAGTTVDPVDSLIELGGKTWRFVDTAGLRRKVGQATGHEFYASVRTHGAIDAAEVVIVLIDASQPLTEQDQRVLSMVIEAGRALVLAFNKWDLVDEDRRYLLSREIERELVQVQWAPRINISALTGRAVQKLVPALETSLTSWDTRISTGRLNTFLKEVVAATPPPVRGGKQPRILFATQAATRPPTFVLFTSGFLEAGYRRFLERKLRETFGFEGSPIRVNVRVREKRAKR

[4] = substrate: Nc1nc2c(ncn2[C@@H]2O[C@H](COP(=O)(O)OP(=O)(O)OP(=O)(O)O)[C@@H](O)[C@H]2O)c(=O)[nH]1; assay: colorimetric Pi release GTPase assay; format: biochemical, Mycolicibacterium smegmatis; conditions: 40 mM Tris-Cl pH 8.0, 2 mM MgCl2, 40% glycerol, 1 h, no GDP

CNc1ccccc1C(=O)O[C@H]1[C@@H](O)[C@H](n2cnc3c(=O)[nH]c(N)nc32)O[C@@H]1COP(=O)(O)OP(=O)(O)O [mant-GDP]
% reduction in binding affinity vs wild-type (EngA^MS (MSMEG_3738) [1]): ~ 50%
% reduction in binding affinity vs wild-type (EngA^MS (MSMEG_3738) [2]): ~ 50%

Nc1nc2c(ncn2[C@@H]2O[C@H](COP(=O)(O)OP(=O)(O)O)[C@@H](O)[C@H]2O)c(=O)[nH]1 [GDP]
inhibition at 200 µM (EngA^MS (MSMEG_3738) [3]): 40%

B1: EngA^MS (MSMEG_3738) (Mycolicibacterium smegmatis MC2 155) (protein)
chain: MSTDSDGTWSDESEWDLDGEFADAIHEAEDAAAPPPVLAIVGRPNVGKSTLVNRILGRREAVVQDVPGVTRDRVSYDANWLGRRFVVQDTGGWEPDAKGLQQLVADQALVAMRTADAVILVVDAVVGATAADEAAAKLLRRSGKPVFLAANKVDTERGEADAASLWSLGVGEPHPISAMHGRGVADLLDTVMEKLPEVSEVATGGSGGPRRVALVGKPNVGKSSLLNRLAGDHRSVVHDMAGTTVDPVDSLIELGGKTWRFVDTAGLRRKVGQATGHEFYASVRTHGAIDAAEVVIVLIDASQPLTEQDQRVLSMVIEAGRALVLAFNKWDLVDEDRRYLLSREIERELVQVQWAPRINISALTGRAVQKLVPALETSLTSWDTRISTGRLNTFLKEVVAATPPPVRGGKQPRILFATQAATRPPTFVLFTSGFLEAGYRRFLERKLRETFGFEGSPIRVNVRVREKRAKR
Km [4]: 39 µM
kcat [4]: 8.3e-05 s⁻¹
